The values that follow come from US8119628B2, “Pyrrolidine fused indolobenzadiazepine HCV NS5B inhibitors” (Bristol-Myers Squibb Company, priority 2008, dated 2012).

One assay concerns the target T1, HCV NS5B (Hepatitis C virus genotype 1b, UniProt Q9WMX2).
T1 construct: The protein was expressed with an 18 amino acid C-terminal truncation to enhance the solubility; made in house; host or cells: E. coli BL21(DE3)
Nature of the assay: Modified HCV NS5B RdRp enzyme assay (preincubation protocol). The conditions noted are these: HCV NS5B RdRp genotype 1b, reported as class. It counts as biochemical. The method, then:
HCV NS5B RdRp cloning, expression, and purification. The cDNA encoding the NS5B protein of HCV, genotype 1b, was cloned into the pET21a expression vector. The protein was expressed with an 18 amino acid C-terminal truncation to enhance the solubility. The E. coli competent cell line BL21(DE3) was used for expression of the protein. Cultures were grown at 37° C. for ˜4 hours until the cultures reached an optical density of 2.0 at 600 nm. The cultures were cooled to 20° C. and induced with 1 mM IPTG. Fresh ampicillin was added to a final concentration of 50 μg/ml and the cells were grown overnight at 20° C.
Cell pellets (3 L) were lysed for purification to yield 15-24 […] of purified NS5B. The lysis buffer consisted of 20 mM Tris-HCl, pH 7.4, 500 mM NaCl, 0.5% triton X-100, 1 mM DTT, 1 mM EDTA, 20% glycerol, 0.5 mg/ml lysozyme, 10 mM MgCl2, 15 ug/ml deoxyribonuclease I, and Complete TM protease inhibitor tablets (Roche). After addition of the lysis buffer, frozen cell pellets were resuspended using a tissue homogenizer. To reduce the viscosity of the sample, aliquots of the lysate were sonicated on ice using a microtip attached to a Branson sonicator. The sonicated lysate was centrifuged at 100,000×g for 1 hr at 4° C. and filtered through a 0.2 μm filter unit (Corning).
The protein was purified using three sequential chromatography steps: Heparin sepharose CL-6B, polyU sepharose 4B, and Hitrap SP sepharose (Pharmacia). The chromatography buffers were identical to the lysis buffer but contained no lysozyme, deoxyribonuclease I, MgCl2 or protease inhibitor and the NaCl concentration of the buffer was adjusted according to the requirements for charging the protein onto the column. Each column was eluted with a NaCl gradient which varied in length from 5-50 column volumes depending on the column type. After the final chromatography step, the resulting purity of the enzyme is >90% based on SDS-PAGE analysis. The enzyme was aliquoted and stored at −80° C.
Standard HCV NS5B RdRp enzyme assay. HCV RdRp genotype 1b assays were run in a final volume of 60 μl in 96 well plates (Costar 3912). The assay buffer is composed of 20 mM Hepes, pH 7.5, 2.5 mM KCl, 2.5 mM MgCl2, 1 mM DTT, 1.6 U RNAse inhibitor (Promega N2515), 0.1 mg/ml BSA (Promega R3961), and 2% glycerol. All compounds were serially diluted (3-fold) in DMSO and diluted further in water such that the final concentration of DMSO in the assay was 2%. HCV RdRp genotype 1b enzyme was used at a final concentration of 28 nM. A polyA template was used at 6 nM, and a biotinylated oligo-dT12 primer was used at 180 nM final concentration. Template was obtained commercially (Amersham 27-4110). Biotinylated primer was prepared by Sigma Genosys. 3H-UTP was used at 0.6 μCi (0.29 μM total UTP). Reactions were initiated by the addition of enzyme, incubated at 30° C. for 60 min, and stopped by adding 25 μl of 50 mM EDTA containing SPA beads (4 μg/μl, Amersham RPNQ 0007). Plates were read on a Packard Top Count NXT after >1 hr incubation at room temperature.
Modified HCV NS5B RdRp enzyme assay. A modified enzyme assay was performed essentially as described for the standard enzyme assay except for the following: The biotinylated oligo dTl2 primer was precaptured on streptavidin-coated SPA beads by mixing primer and beads in assay buffer and incubating at room temperature for one hour. Unbound primer was removed after centrifugation. The primer-bound beads were resuspended in 20 mM Hepes buffer, pH 7.5 and used in the assay at final concentrations of 20 nM primer and […] beads. Order of addition in the assay: enzyme (14 nM) was added to diluted compound followed by the addition of a mixture of template (0.2 nM), 3H-UTP (0.6 μCi, 0.29 μM), and primer-bound beads, to initiate the reaction; concentrations given are final. Reactions were allowed to proceed for 4 hours at 30° C.
IC50 values for compounds were determined using seven different. […]

The subject of a further assay is HCV replicon cells. Kind of assay: HCV FRET assay in HCV replicon cells. The conditions noted are these: Hepatitis C virus, reported as class. It counts as cell-based. An excerpt: FRET Assay Preparation. To perform the HCV FRET screening assay, 96-well cell culture plates were used. The FRET peptide (Anaspec, Inc.) (Taliani et al., Anal. Biochem. 1996, 240, 60-67) contains a fluorescence donor, EDANS, near one end of the peptide and an acceptor, DABCYL, near the other end. The fluorescence of the peptide is quenched by […] resonance energy transfer (RET) between the donor and the acceptor, but as the NS3 protease cleaves the peptide the products are released from RET quenching and the fluorescence of the donor becomes apparent. The assay reagent was made as follows: 5× cell Luciferase cell culture lysis reagent from Promega (#E153A) diluted to 1× with dH2O, NaCl added to 150 mM final, the FRET peptide diluted to 20 uM final from a 2 mM stock.
To prepare plates, HCV replicon cells, with or without a Renilla luciferase reporter gene, were trypsinized and placed into each well of a 96-well plate with titrated test compounds added in columns 3 through 12; columns 1 and 2 contained a control compound (HCV protease inhibitor), and the bottom row contained cells without compound. The plates were then placed in a CO2 incubator at 37° C.
Assays. Subsequent to addition of the test compounds described above (FRET Assay Preparation), at various times the plate was removed and Alamar blue solution (Trek Diagnostics, #00-100) was added per well as a measure of cellular toxicity. After reading in a Cytoflour 4000 instrument (PE Biosystems), plates were rinsed with PBS and then used for FRET assay by the addition of 30 ul of the FRET peptide assay reagent described above (FRET Assay Preparation) per well. The plate was then placed into the Cytoflour 4000 instrument which had been set to 340 excite/490 emission, automatic mode for 20 cycles and the plate read in a kinetic mode. Typically, the signal to noise using an endpoint analysis after the reads was at least three-fold. Alternatively, after Alamar blue reading, plates were rinsed with PBS, 50 ul of DMEM (high glucose) without phenol red was added and plates were then used for luciferase assay using the Promega Dual-Glo Luciferase Assay System.
Compound analysis was determined by quantification of the relative HCV replicon inhibition and the relative cytotoxicity values. To calculate cytoxicity values, the average Alamar Blue fluorescence signals from the control wells were set as 100% non-toxic. The individual signals in each of the compound test wells were then divided by the average control signal and multiplied by 100% to determine […]. To calculate the HCV replicon inhibition values, an average background value was obtained from the two wells containing the highest amount of HCV protease inhibitor at the end of the assay period. These numbers were similar to those obtained from naïve Huh-7 cells.
The background numbers were then subtracted from the average signal obtained from the control wells and this number was used as 100% activity. The individual signals in each of the compound test wells were then divided by the averaged control values after background subtraction and multiplied by 100% to determine percent activity. EC50 values for a protease inhibitor titration were calculated as the concentration which caused a 50% reduction in FRET or luciferase activity. The two numbers generated for the compound plate, percent cytoxicity and percent activity were used to determine compounds of interest for further analysis.
For orientation: Replicon systems follow genome replication, usually without infectious particles.

Molecules are shown by their SMILES.

T1 sequence (Q9WMX2 2420-2992): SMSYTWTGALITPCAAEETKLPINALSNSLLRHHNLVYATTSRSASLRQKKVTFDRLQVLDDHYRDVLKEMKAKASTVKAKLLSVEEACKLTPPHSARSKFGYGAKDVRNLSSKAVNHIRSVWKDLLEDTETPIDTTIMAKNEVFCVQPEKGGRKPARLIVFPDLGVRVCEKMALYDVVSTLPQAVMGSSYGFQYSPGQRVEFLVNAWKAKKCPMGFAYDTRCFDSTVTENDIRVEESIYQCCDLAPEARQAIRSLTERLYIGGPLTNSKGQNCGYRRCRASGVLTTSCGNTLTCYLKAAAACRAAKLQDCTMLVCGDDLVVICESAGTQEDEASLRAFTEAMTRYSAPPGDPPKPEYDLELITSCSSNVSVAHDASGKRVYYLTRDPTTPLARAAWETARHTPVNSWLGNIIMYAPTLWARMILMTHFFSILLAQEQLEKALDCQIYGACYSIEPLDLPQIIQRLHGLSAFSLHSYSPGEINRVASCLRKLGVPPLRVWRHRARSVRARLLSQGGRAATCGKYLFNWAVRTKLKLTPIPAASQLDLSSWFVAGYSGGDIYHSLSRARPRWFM

`COc1ccc2c(c1)C1CN(C)CC1(C(=O)N1C[C@@H](C)O[C@@H](C)C1)Cn1c-2c(C2CCCCC2)c2ccc(C(=O)NS(=O)(=O)N(C)C)cc21` (mixture of isomers) [Example 3, rac-(3aR,14bR)-10-Cyclohexyl-3a-(((2S,6R)-2,6-dimethyl-4-morpholinyl)carbonyl)-N-(dimethylsulfamoyl)-13-methoxy-2-methyl-1,2,3,3a,4,14b-hexahydroindolo[2,1-a]pyrrolo[3,4-d][2]benzazepine-7-carboxamide]: at HCV NS5B, the IC50 lay within 20 to 500 nM. The molecule further yielded an EC50 in the assay with HCV replicon cells of 20 to 500 nM.

Usually IC50 stands for the midpoint of a concentration-inhibition curve. The low end stands for greater potency, the high end for weaker potency. For orientation: EC50 means the concentration needed to bring the measured effect to its halfway point.
